From ChEMBL document CHEMBL3244132, “Semisynthetic aminoglycoside antibacterials. 6. Synthesis of sisomicin, Antibiotic G-52, and novel 6'-substituted analogues of sisomicin from aminoglycoside 66-40C” (J Med Chem, 1978)
Values after ≈ are worked out from the molar mass of the structure shown. Active and inactive are the calls of the source. No cut-off for these calls is given here.

Experiments:
[1] = system: Trichomonas vaginalis; test: Antiprotozoal activity against Trichomonas vaginalis after 48 hrs; format: functional
[2] = system: Entamoeba histolytica; test: Antiprotozoal activity against Entamoeba histolytica JH; format: functional
[3] = system: Pseudomonas aeruginosa; test: Antimicrobial activity against Pseudomonas aeruginosa St. M. 762 by tube dilution method; format: functional
[4] = system: Bacillus subtilis; test: Antimicrobial activity against Bacillus subtilis ATCC 6633 by tube dilution method; format: functional
[5] = system: Klebsiella pneumoniae; test: Antimicrobial activity against Klebsiella pneumoniae Adler 17 carrying APH(3')-I by tube dilution method; format: functional
[6] = system: Providencia; test: Antimicrobial activity against Providencia 164 carrying AAC(2')-I by tube dilution method; format: functional
[7] = system: Staphylococcus aureus; test: Antimicrobial activity against Staphylococcus aureus 209 P by tube dilution method; format: functional
[8] = Acute toxicity in albino CF1 mouse; format: organism-based; details: in vivo
[9] = system: Escherichia coli; test: Antimicrobial activity against Escherichia coli Baker 2 carrying APH(3')-I by tube dilution method; format: functional
[10] = system: Escherichia coli; test: Antimicrobial activity against Escherichia coli LA290R55 carrying ANT(2'') by tube dilution method; format: functional
[11] = system: Providencia rettgeri; test: Antimicrobial activity against Providencia rettgeri Anderson by tube dilution method; format: functional
[12] = system: Serratia marcescens; test: Antimicrobial activity against Serratia marcescens Dalton by tube dilution method; format: functional
[13] = system: Escherichia coli; test: Antimicrobial activity against Escherichia coli HL97/W677 carrying AAC(6') by tube dilution method; format: functional
[14] = system: Klebsiella pneumoniae; test: Antimicrobial activity against Klebsiella pneumoniae Georgetown 3694 carrying APH(2'') by tube dilution method; format: functional
[15] = system: Streptococcus pyogenes; test: Antimicrobial activity against Streptococcus pyogenes C by tube dilution method; format: functional
[16] = system: Escherichia coli; test: Antimicrobial activity against Escherichia coli ATCC 10536 by tube dilution method; format: functional
[17] = system: Proteus mirabilis; test: Antimicrobial activity against Proteus mirabilis Harding by tube dilution method; format: functional
[18] = system: Staphylococcus aureus; test: Antimicrobial activity against Staphylococcus aureus Wood by tube dilution method; format: functional
[19] = system: Pseudomonas aeruginosa; test: Antimicrobial activity against Pseudomonas aeruginosa Stone 130 carrying AAC(3) by tube dilution method; format: functional
[20] = system: Streptococcus pyogenes; test: Antimicrobial activity against Streptococcus pyogenes 27 by tube dilution method; format: functional
[21] = system: Providencia rettgeri; test: Antimicrobial activity against Providencia rettgeri Membel by tube dilution method; format: functional
[22] = system: Streptococcus pyogenes; test: Antimicrobial activity against Streptococcus pyogenes Alvarez by tube dilution method; format: functional
[23] = system: Staphylococcus aureus; test: Antimicrobial activity against Staphylococcus aureus 59N by tube dilution method; format: functional
[24] = system: Staphylococcus aureus; test: Antimicrobial activity against Staphylococcus aureus Ziegler by tube dilution method; format: functional
[25] = system: Streptococcus pyogenes; test: Antimicrobial activity against Streptococcus pyogenes Group A Cruz by tube dilution method; format: functional
[26] = system: Salmonella typhimurium; test: Antimicrobial activity against Salmonella typhimurium Gr. B. by tube dilution method; format: functional, Salmonella enterica subsp. enterica serovar Typhimurium; details: for MIC: Salmonella enterica; for Activity: Salmonella enterica subsp. enterica serovar Typhimurium
[27] = system: Histomonas meleagridis; test: Antiprotozoal activity against Histomonas meleagridis; format: functional
[28] = system: Pseudomonas aeruginosa; test: Antimicrobial activity against Pseudomonas aeruginosa GN 315 carrying AAC(6') by tube dilution method; format: functional
[29] = system: Pseudomonas aeruginosa; test: Antimicrobial activity against Pseudomonas aeruginosa St. M. 1395 by tube dilution method; format: functional
[30] = system: Escherichia coli; test: Antimicrobial activity against Escherichia coli JR88 carrying AAC(3) by tube dilution method; format: functional

CN[C@@H]1[C@@H](O)[C@@H](O[C@@H]2[C@@H](O)[C@H](O[C@H]3OC(CN)=CC[C@H]3N)[C@@H](N)C[C@H]2N)OC[C@]1(C)O [SISOMICIN]
Activity [1]: Active | Activity [2]: Active | MIC [3]: 0.3 µg/mL (≈ 0.67 µM) | MIC [4]: < 0.01 µg/mL | MIC [5]: 0.3 µg/mL (≈ 0.67 µM) | MIC [6]: 3 µg/mL (≈ 6.7 µM) | MIC [7]: 0.03 µg/mL (≈ 0.067 µM) | LD50 [8]: 34 mg/kg | MIC [9]: 0.75 µg/mL (≈ 1.68 µM) | MIC [10]: 7.5 µg/mL (≈ 16.8 µM) | MIC [11]: > 25 µg/mL | MIC [12]: 0.3 µg/mL (≈ 0.67 µM) | MIC [13]: 7.5 µg/mL (≈ 16.8 µM) | MIC [14]: 7.5 µg/mL (≈ 16.8 µM) | MIC [15]: 17.5 µg/mL (≈ 39.1 µM) | MIC [16]: 0.75 µg/mL (≈ 1.68 µM) | MIC [17]: 0.3 µg/mL (≈ 0.67 µM) | MIC [18]: 0.03 µg/mL (≈ 0.067 µM) | MIC [19]: 17.5 µg/mL (≈ 39.1 µM) | MIC [20]: 3 µg/mL (≈ 6.7 µM) | MIC [21]: 3 µg/mL (≈ 6.7 µM) | MIC [22]: 7.5 µg/mL (≈ 16.8 µM) | MIC [23]: 0.03 µg/mL (≈ 0.067 µM) | MIC [24]: 0.03 µg/mL (≈ 0.067 µM) | MIC [25]: 7.5 µg/mL (≈ 16.8 µM) | MIC [26]: 0.3 µg/mL (≈ 0.67 µM) | Activity [27]: Active | MIC [28]: 7.5 µg/mL (≈ 16.8 µM) | MIC [29]: 0.3 µg/mL (≈ 0.67 µM) | MIC [30]: 17.5 µg/mL (≈ 39.1 µM)

CN[C@@H]1[C@@H](O)[C@@H](O[C@@H]2[C@@H](O)[C@H](O[C@H]3OC(CNCCO)=CC[C@H]3N)[C@@H](N)C[C@H]2N)OC[C@]1(C)O
Activity [1]: inactive | Activity [2]: inactive | MIC [3]: 0.3 µg/mL (≈ 0.61 µM) | MIC [4]: 0.3 µg/mL (≈ 0.61 µM) | MIC [5]: 0.075 µg/mL (≈ 0.153 µM) | MIC [6]: > 25 µg/mL | MIC [7]: 0.03 µg/mL (≈ 0.061 µM) | LD50 [8]: 135 mg/kg | MIC [9]: 3 µg/mL (≈ 6.1 µM) | MIC [10]: 7.5 µg/mL (≈ 15.3 µM) | MIC [11]: > 25 µg/mL | MIC [12]: 0.75 µg/mL (≈ 1.53 µM) | MIC [13]: 0.75 µg/mL (≈ 1.53 µM) | MIC [14]: > 25 µg/mL | MIC [15]: > 25 µg/mL | MIC [16]: 0.075 µg/mL (≈ 0.153 µM) | MIC [17]: 0.3 µg/mL (≈ 0.61 µM) | MIC [18]: 0.03 µg/mL (≈ 0.061 µM) | MIC [19]: > 25 µg/mL | MIC [21]: 0.75 µg/mL (≈ 1.53 µM) | MIC [22]: 17.5 µg/mL (≈ 35.6 µM) | MIC [24]: 0.03 µg/mL (≈ 0.061 µM) | MIC [25]: 17.5 µg/mL (≈ 35.6 µM) | MIC [26]: 0.75 µg/mL (≈ 1.53 µM) | Activity [27]: inactive | MIC [28]: 0.3 µg/mL (≈ 0.61 µM) | MIC [29]: 0.3 µg/mL (≈ 0.61 µM) | MIC [30]: > 25 µg/mL

CN[C@@H]1[C@@H](O)[C@@H](O[C@@H]2[C@@H](O)[C@H](O[C@H]3OC(CNC(C)(C)C)=CC[C@H]3N)[C@@H](N)C[C@H]2N)OC[C@]1(C)O
Activity [1]: inactive | Activity [2]: inactive | MIC [3]: 7.5 µg/mL (≈ 14.9 µM) | MIC [4]: < 0.01 µg/mL | MIC [5]: 7.5 µg/mL (≈ 14.9 µM) | MIC [6]: 17.5 µg/mL (≈ 34.7 µM) | MIC [7]: 0.03 µg/mL (≈ 0.0596 µM) | LD50 [8]: 90 mg/kg | MIC [9]: 7.5 µg/mL (≈ 14.9 µM) | MIC [10]: 17.5 µg/mL (≈ 34.7 µM) | MIC [11]: > 25 µg/mL | MIC [12]: 7.5 µg/mL (≈ 14.9 µM) | MIC [13]: 3 µg/mL (≈ 5.96 µM) | MIC [14]: > 25 µg/mL | MIC [15]: 17.5 µg/mL (≈ 34.7 µM) | MIC [16]: 0.75 µg/mL (≈ 1.49 µM) | MIC [17]: 3 µg/mL (≈ 5.96 µM) | MIC [18]: 0.03 µg/mL (≈ 0.0596 µM) | MIC [19]: > 25 µg/mL | MIC [20]: 7.5 µg/mL (≈ 14.9 µM) | MIC [21]: 3 µg/mL (≈ 5.96 µM) | MIC [22]: > 25 µg/mL | MIC [23]: 0.75 µg/mL (≈ 1.49 µM) | MIC [24]: 0.03 µg/mL (≈ 0.0596 µM) | MIC [25]: 3 µg/mL (≈ 5.96 µM) | MIC [26]: 3 µg/mL (≈ 5.96 µM) | Activity [27]: inactive | MIC [28]: 7.5 µg/mL (≈ 14.9 µM) | MIC [29]: 17.5 µg/mL (≈ 34.7 µM) | MIC [30]: > 25 µg/mL

CN[C@@H]1[C@@H](O)[C@@H](O[C@@H]2[C@@H](O)[C@H](O[C@H]3OC(/C=N\O)=CC[C@H]3N)[C@@H](N)C[C@H]2N)OC[C@]1(C)O
Activity [1]: inactive | Activity [2]: inactive | Activity [3]: inactive | Activity [4]: inactive | Activity [5]: inactive | Activity [6]: inactive | Activity [7]: inactive | Activity [9]: inactive | Activity [10]: inactive | Activity [11]: inactive | Activity [12]: inactive | Activity [13]: inactive | Activity [14]: inactive | Activity [15]: inactive | Activity [16]: inactive | Activity [17]: inactive | Activity [18]: inactive | Activity [19]: inactive | Activity [20]: inactive | Activity [21]: inactive | Activity [22]: inactive | Activity [23]: inactive | Activity [24]: inactive | Activity [25]: inactive | Activity [26]: inactive | Activity [27]: inactive | Activity [28]: inactive | Activity [29]: inactive | Activity [30]: inactive

CN[C@@H]1[C@@H](O)[C@@H](O[C@@H]2[C@@H](O)[C@H](O[C@H]3OC(/C=N\OC)=CC[C@H]3N)[C@@H](N)C[C@H]2N)OC[C@]1(C)O
Activity [1]: inactive | Activity [2]: inactive | Activity [3]: inactive | Activity [4]: inactive | Activity [5]: inactive | Activity [6]: inactive | Activity [7]: inactive | Activity [9]: inactive | Activity [10]: inactive | Activity [11]: inactive | Activity [12]: inactive | Activity [13]: inactive | Activity [14]: inactive | Activity [15]: inactive | Activity [16]: inactive | Activity [17]: inactive | Activity [18]: inactive | Activity [19]: inactive | Activity [20]: inactive | Activity [21]: inactive | Activity [22]: inactive | Activity [23]: inactive | Activity [24]: inactive | Activity [25]: inactive | Activity [26]: inactive | Activity [27]: inactive | Activity [28]: inactive | Activity [29]: inactive | Activity [30]: inactive
